{"source": "patent EP2871189A1", "about": "“High-affinity monoclonal anti-strep-tag antibody” (INSTITUT PASTEUR, priority 2013, dated 2015)", "origin": "cited, not measured here", "target": "Strep-Tactin", "conditions": "individual binding site (monovalent interaction) on Strep-Tactin; Schmidt TG et al, J.Mol. Biol. 1996; read-out: dissociation constant"}
{"substance": "Strep-tag II peptide: peptide tag of minimal sequence WSHPQFEK (SEQ ID NO:9) that binds streptavidin / Strep-Tactin", "values": [{"measurement": "Kd", "value": "~1", "unit": "µM"}]}
